Assay results from patent US6616925B1, “Combined preparation for the treatment of neoplasic diseases or of infectious diseases” (I.D.M. Immuno-Designed Molecules, priority 1998, dated 2003).

Assays:
[1] = test system: human carcinoma solid tumors; assay: nude mice inoculated with human carcinoma solid tumors, subcutaneous tumor size; type: in vivo; conditions: after macrophage treatment; drugs used alone or in combination
Text: 2) Nude mice inoculated with human carcinoma solid tumors are, initially treated with cytotoxic drugs (Adriamycin, Etretinate, Taxotere), used alone or in combination.

solid carcinoma = assay: C57B16 mice bearing solid carcinoma, apoptosis-inducing drug then monocyte derived cells; type: in vivo; conditions: drug intraperitonealy, after 24 h 0.1 million monocyte derived cells in tumor periphery; observed only after combined treatment
Method: 7) C57B16 mice bearing solid carcinoma are injected intraperitonealy with a drug inducing apoptosis (1 mg mitomycin C or 0.1 mg sodium butyrate). After 24 h, mice are injected with 0.1 million monocyte derived cells in tumor periphery. […] In another protocol, carcinoma cells are treated in vitro with 0.01 mM sodium butyrate, and then submitted to phagocytosis by murine monocyte derived cells.

Row | Compound | antitumoral effect of second treatment with the same cytotoxic drugs (subcutaneous tumor size) [1] | tumor outcome after combined treatment (solid carcinoma)
1 | COc1cccc2c1C(=O)c1c(O)c3c(c(O)c1C2=O)C[C@@](O)(C(=O)CO)C[C@@H]3O[C@H]1C[C@H](N)[C@H](O)[C@H](C)O1 [Adriamycin] | further antitumoral effect | 
2 | CCOC(=O)/C=C(C)/C=C/C=C(C)/C=C/c1c(C)cc(OC)c(C)c1C [Etretinate] | further antitumoral effect | 
3 | CC(=O)O[C@@]12CO[C@@H]1C[C@H](O)[C@@]1(C)C(=O)[C@H](O)C3=C(C)[C@@H](OC(=O)[C@H](O)[C@@H](NC(=O)OC(C)(C)C)c4ccccc4)C[C@@](O)([C@@H](OC(=O)c4ccccc4)[C@H]21)C3(C)C [Taxotere] | further antitumoral effect | 
4 | CO[C@@]12[C@H](COC(N)=O)C3=C(C(=O)C(C)=C(N)C3=O)N1C[C@@H]1N[C@@H]12 [mitomycin C] |  | Tumor regression and protection against further tumor challenge
5 | CCCC(=O)[O-].[Na+] [sodium butyrate] |  | Tumor regression and protection against further tumor challenge
